# Measurements: patent publication US20160083400A1, “TRICYCLIC GUANIDINE DERIVATIVE” (Sunovion Pharmaceuticals Inc., priority 2014, published 2016)
# Key:
# Assay type in all cases: biochemical
# [1] = target: PDE1A (PDE 1A3) (Homo sapiens, UniProt P54750); experiment: In vitro HTRF PDE1 inhibition assay (PDE1A); conditions: PDE1A (1A3); 100 nM cyclic GMP, calmodulin, 45 minutes at 37° C.
# From the text: (§1) An exemplary procedure for the in vitro Homogenous Time Resolved Fluorescence (HTRF) assay, which can be used to determine the inhibitory action of compounds of the invention toward PDE1 or its isoforms, follows.
# (§2) The HTRF PDE1 assay utilized the HTRF technology, which is based on the competition between unlabeled cyclic nucleotide and cyclic nucleotide labeled with XL665 for the binding to cyclic nucleotide-specific antibody labeled with cryptate. The HTRF signal is thus inversely proportional to the concentration of cyclic nucleotide being measured. Since phosphodiesterases break down cyclic nucleotides the HTRF signal was used to determine PDE activity.
# (§3) The Cisbio cGMP HTRF assay kit (Cat no: 62GM2PEC) was utilized. Cyclic GMP was diluted to 200 nM in HTRF assay buffer (1 mM CaCl2, 10 mM MgCl2, 10 mM Tris-HCl, 0.1% BSA, pH7.4). 10 μl of compound or DMSO was diluted in 200 nM cyclic GMP solution and added to wells of a 96 well white plate to give 100 nM cyclic GMP in 1% DMSO final concentration. PDE (1A3, 1B or 1C) was diluted to 2× working concentration in HTRF assay buffer with 4 μg/ml Calmodulin, and 10 μl was added to initiate the reaction. The plate was then incubated for 45 minutes at 37° C. d2-Labelled cyclic GMP and anti-cGMP cryptate were diluted in 50 mM phosphate buffer, 0.8M KF, 1% Triton X100, 0.2% BSA, pH7.0. Following incubation 10 μl d2-cGMP, then 10 μl anti cGMP cryptate were added to each well and the plate was incubated for 45 minutes at rt. The plate was then read on Perkin Elmer Victor at 2 different FRET readings ex/emm 340 nm/665 nm and 340 nm/615 nm.
# (§4) Compounds having an IC50 of <1 μM, are denoted as +++. Compounds having an IC50 of 1-10 μM, are denoted as ++. Compounds having an IC50 of 10-100 μM, are denoted as +.
# [2] = target: PDE1C (Homo sapiens, UniProt Q14123); experiment: In vitro HTRF PDE1 inhibition assay (PDE1C)
# PDE1C, sequence (Q14123 whole entry): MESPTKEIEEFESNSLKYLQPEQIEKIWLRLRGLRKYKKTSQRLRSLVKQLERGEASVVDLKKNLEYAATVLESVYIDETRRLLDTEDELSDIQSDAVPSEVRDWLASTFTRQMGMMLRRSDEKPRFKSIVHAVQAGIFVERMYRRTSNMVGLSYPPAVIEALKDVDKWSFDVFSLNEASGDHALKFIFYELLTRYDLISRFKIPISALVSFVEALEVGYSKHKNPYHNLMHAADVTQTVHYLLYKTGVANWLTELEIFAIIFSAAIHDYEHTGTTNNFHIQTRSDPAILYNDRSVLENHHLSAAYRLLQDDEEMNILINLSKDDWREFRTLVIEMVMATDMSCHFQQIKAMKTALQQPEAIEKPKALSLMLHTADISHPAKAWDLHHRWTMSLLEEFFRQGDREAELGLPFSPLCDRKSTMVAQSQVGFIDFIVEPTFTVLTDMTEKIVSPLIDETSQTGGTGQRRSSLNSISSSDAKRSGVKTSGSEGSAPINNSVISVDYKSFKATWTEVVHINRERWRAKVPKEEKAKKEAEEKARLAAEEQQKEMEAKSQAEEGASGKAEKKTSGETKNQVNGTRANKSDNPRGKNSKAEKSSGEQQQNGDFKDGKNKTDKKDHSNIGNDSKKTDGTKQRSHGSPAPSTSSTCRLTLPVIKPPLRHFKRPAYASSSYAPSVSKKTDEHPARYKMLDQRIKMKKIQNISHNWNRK
# From the text: as §1, §2, §3, §4
# [3] = target: PDE1B (Homo sapiens, UniProt Q01064); experiment: In vitro HTRF PDE1 inhibition assay (PDE1B); conditions: 100 nM cyclic GMP, calmodulin, 45 minutes at 37° C.
# PDE1B, sequence (Q01064 whole entry): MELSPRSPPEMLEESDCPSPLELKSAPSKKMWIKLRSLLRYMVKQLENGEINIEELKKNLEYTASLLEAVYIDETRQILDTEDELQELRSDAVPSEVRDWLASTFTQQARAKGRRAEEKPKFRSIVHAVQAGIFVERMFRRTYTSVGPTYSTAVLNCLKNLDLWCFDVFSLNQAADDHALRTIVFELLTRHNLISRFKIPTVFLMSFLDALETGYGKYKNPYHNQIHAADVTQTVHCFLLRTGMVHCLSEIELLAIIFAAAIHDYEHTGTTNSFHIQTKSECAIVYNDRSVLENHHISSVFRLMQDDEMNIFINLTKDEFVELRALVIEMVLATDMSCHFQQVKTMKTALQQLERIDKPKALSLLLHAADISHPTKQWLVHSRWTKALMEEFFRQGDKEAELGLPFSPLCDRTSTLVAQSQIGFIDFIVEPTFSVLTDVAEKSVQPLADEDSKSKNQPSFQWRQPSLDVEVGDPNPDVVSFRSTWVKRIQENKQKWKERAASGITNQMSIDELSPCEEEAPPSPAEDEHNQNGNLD
# PDE1A (PDE 1A3), sequence (P54750 whole entry, canonical isoform): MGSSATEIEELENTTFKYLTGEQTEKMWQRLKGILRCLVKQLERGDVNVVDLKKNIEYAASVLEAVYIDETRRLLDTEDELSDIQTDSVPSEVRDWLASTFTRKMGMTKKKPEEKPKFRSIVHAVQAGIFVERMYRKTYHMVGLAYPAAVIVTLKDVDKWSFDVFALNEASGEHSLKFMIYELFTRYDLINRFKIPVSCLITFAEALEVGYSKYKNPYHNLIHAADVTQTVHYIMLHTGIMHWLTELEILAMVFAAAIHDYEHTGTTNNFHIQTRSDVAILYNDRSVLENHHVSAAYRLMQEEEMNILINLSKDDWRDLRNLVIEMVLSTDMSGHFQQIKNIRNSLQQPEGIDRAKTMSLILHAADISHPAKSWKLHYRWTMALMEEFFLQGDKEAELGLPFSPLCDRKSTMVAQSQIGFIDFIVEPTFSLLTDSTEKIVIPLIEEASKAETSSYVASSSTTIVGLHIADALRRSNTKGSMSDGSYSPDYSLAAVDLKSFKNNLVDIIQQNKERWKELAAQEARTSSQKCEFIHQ
SMILES,IC50 [1],IC50 [2],IC50 [3]
COc1ccc(C2CCn3c(nn4c(C5CCOCC5)ncc4c3=O)N2)cc1 (stereo not drawn) [Example 57],< 1 µM,< 1 µM,< 1 µM
O=c1c2cnc(C3CCC3)n2nc2n1CC[C@H](c1ccc(Cl)cc1)N2 [Example 65],< 1 µM,< 1 µM,< 1 µM
"O=c1c2cnc(C3CCOCC3)n2nc2n1CC[C@H](c1ccc(Cl)cc1)N2 [Example 69, (2R)-2-(4-Chlorophenyl)-9-(tetrahydro-2H-pyran-4-yl)-1,2,3,4-tetrahydro-6H-imidazo[5,1-f]pyrimido[2,1-c][1,2,4]triazin-6-one]",< 1 µM,< 1 µM,< 1 µM
"Cc1ccc([C@H]2CN3C(=O)c4cnc(C(C)C)n4NC3=N2)cc1 [Example 96, (2S)-8-Isopropyl-2-(4-methylphenyl)-2,10-dihydro-3H,5H-diimidazo[2,1-c:5′,1′-f][1,2,4]triazin-5-one]",< 1 µM,< 1 µM,< 1 µM
CC(C)n1ncc2c(=O)n3c(nc21)N[C@@H](c1ccc(Cl)cc1)C3 [Example 144],< 1 µM,< 1 µM,< 1 µM
"COc1ccc([C@H]2Cn3c(nn4c(C5CCOCC5)ncc4c3=O)N2)cc1 [Example 151, (2S)-2-(4-Methoxyphenyl)-8-(tetrahydro-2H-pyran-4-yl)-2,10-dihydro-3H,5H-diimidazo[2,1-c:5′,1′-f][1,2,4]triazin-5-one]",< 1 µM,< 1 µM,< 1 µM
O=c1c2cnc(C3COC3)n2nc2n1CC[C@H](c1ccc(Cl)cc1)N2 [Example 165],< 1 µM,1 to 10 µM,< 1 µM
O=c1c2cnc([C@@H]3CCOC3)n2nc2n1CC[C@H](c1ccc(Cl)cc1)N2 [Example 224],< 1 µM,1 to 10 µM,< 1 µM
CC[C@@H](C)c1ncc2c(=O)n3c(nn12)N[C@@H](c1ccc(Cl)cc1)CC3 [Example 226],< 1 µM,< 1 µM,< 1 µM
CC[C@H](C)c1ncc2c(=O)n3c(nn12)N[C@@H](c1ccc(Cl)cc1)CC3 [Example 227],< 1 µM,< 1 µM,< 1 µM
CC(C)(O)c1ncc2c(=O)n3c(nn12)N[C@@H](c1ccc(Cl)cc1)CC3 [Example 242],< 1 µM,1 to 10 µM,< 1 µM
CO[C@@H](C)c1ncc2c(=O)n3c(nn12)N[C@@H](c1ccc(Cl)cc1)CC3 [Example 259],< 1 µM,< 1 µM,< 1 µM
CO[C@H](C)c1ncc2c(=O)n3c(nn12)N[C@@H](c1ccc(Cl)cc1)CC3 [Example 260],< 1 µM,1 to 10 µM,< 1 µM
"O=c1c2ncnc(C3CCOCC3)c2nc2n1CCC(c1ccc(Cl)cc1)N2 (stereo not drawn) [Example 265, 7-(4-Chlorophenyl)-4-(tetrahydro-2H-pyran-4-yl)-5,7,8,9-tetrahydro-11H-dipyrimido[1,2-a:5′,4′-d]pyrimidin-11-one]",< 1 µM,1 to 10 µM,< 1 µM

# Results, then the compound that gave them:
IC50 [1],IC50 [2],IC50 [3],SMILES
< 1 µM,< 1 µM,< 1 µM,O=c1c2cnc(C3CCCC3)n2nc2n1CC[C@H](c1ccc(Cl)cc1)N2 [Example 61]
< 1 µM,1 to 10 µM,< 1 µM,O=c1c2cnc(C3CCOCC3)n2nc2n1C[C@H](c1ccc(Cl)cc1)N2 [Example 139]
< 1 µM,1 to 10 µM,< 1 µM,CC(C)c1ncnc2c(=O)n3c(nc12)NC(c1ccc(Cl)cc1)CC3 (stereo not drawn) [Example 176]
< 1 µM,< 1 µM,< 1 µM,O=c1c2cnc([C@H]3CCOC3)n2nc2n1CC[C@H](c1ccc(Cl)cc1)N2 [Example 225]
< 1 µM,1 to 10 µM,< 1 µM,O=c1c2cnc(C3(C(F)(F)F)CC3)n2nc2n1CC[C@H](c1ccc(Cl)cc1)N2 [Example 238]
< 1 µM,1 to 10 µM,< 1 µM,COC1(c2ncc3c(=O)n4c(nn23)N[C@@H](c2ccc(Cl)cc2)CC4)CC1 [Example 239]
